{"source": "paper PMC9668969", "about": "(Nature Communications, 2022)", "target": "T1, W206F ELIC (Dickeya chrysanthemi, UniProt P0C7B7, W205F)", "T1 construct": "host or cells: OverExpress C43 (DE3) E. coli", "T1 sequence (P0C7B7 whole entry W205F)": "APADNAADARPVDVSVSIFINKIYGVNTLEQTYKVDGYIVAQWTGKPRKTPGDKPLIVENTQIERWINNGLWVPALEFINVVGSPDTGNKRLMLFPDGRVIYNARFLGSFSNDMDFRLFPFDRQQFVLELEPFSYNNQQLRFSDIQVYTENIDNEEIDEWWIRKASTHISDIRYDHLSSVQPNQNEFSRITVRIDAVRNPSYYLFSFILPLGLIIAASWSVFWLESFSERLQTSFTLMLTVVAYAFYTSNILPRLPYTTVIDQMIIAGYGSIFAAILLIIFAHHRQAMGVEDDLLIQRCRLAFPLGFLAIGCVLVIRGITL", "experiment": "Tryptophan fluorescence emission spectrum with and without agonist", "type": "biochemical, Erwinia chrysanthemi", "conditions": "W206F 30 mM Cys", "protocol": "To measure the tryptophan (Trp) fluorescence emission of ELIC, WT or W206F ELIC was diluted to 3 ml (0.02 mg/ml) and an emission spectrum was collected in a quartz fluorescence cell using a Fluoromax Plus Spectrofluorometer (Horiba Scientific). […] Trp fluorescence measurements with rapid mixing of agonist was carried out using the SX20 stopped-flow spectrofluorometer, outfitted with a 295 nm LED excitation source. Purified ELIC was diluted to 0.1 mg/ml in Trp Stopped-flow Buffer A (10 mM Tris pH 7.5, 100 mM NaCl, 0.05% DDM). A single mixing experiment was performed by mixing ELIC with equal volumes of Buffer A + propylamine. Propylamine was prepared at varying concentrations at 2x the final concentration. The instrument dead time was ~1 ms, enabling capture of most of the time course of change in Trp fluorescence. The time course of decrease in Trp fluorescence after rapid mixing with propylamine was fit to a single exponential to obtain a time constant for the rate of decrease and a measure of the extent of decrease. All replicates were taken from distinct samples.", "data": [{"smiles": "NCCS", "note": "[cysteamine]", "values": [{"measurement": "Tryptophan fluorescence emission intensity", "setting": "wavelength 320", "value": 771490}, {"measurement": "Tryptophan fluorescence emission intensity", "setting": "wavelength 321", "value": 795430}, {"measurement": "Tryptophan fluorescence emission intensity", "setting": "wavelength 322", "value": 813680}, {"measurement": "Tryptophan fluorescence emission intensity", "setting": "wavelength 323", "value": 843300}, {"measurement": "Tryptophan fluorescence emission intensity", "setting": "wavelength 324", "value": 855410}, {"measurement": "Tryptophan fluorescence emission intensity", "setting": "wavelength 325", "value": 890410}, {"measurement": "Tryptophan fluorescence emission intensity", "setting": "wavelength 327", "value": 921570}, {"measurement": "Tryptophan fluorescence emission intensity", "setting": "wavelength 328", "value": 945690}, {"measurement": "Tryptophan fluorescence emission intensity", "setting": "wavelength 329", "value": 972730}, {"measurement": "Tryptophan fluorescence emission intensity", "setting": "wavelength 330", "value": 989960}, {"measurement": "Tryptophan fluorescence emission intensity", "setting": "wavelength 331", "value": 1002600}, {"measurement": "Tryptophan fluorescence emission intensity", "setting": "wavelength 332", "value": 1020470}, {"measurement": "Tryptophan fluorescence emission intensity", "setting": "wavelength 333", "value": 1032760}, {"measurement": "Tryptophan fluorescence emission intensity", "setting": "wavelength 334", "value": 1043250}, {"measurement": "Tryptophan fluorescence emission intensity", "setting": "wavelength 335", "value": 1051410}, {"measurement": "Tryptophan fluorescence emission intensity", "setting": "wavelength 336", "value": 1059950}, {"measurement": "Tryptophan fluorescence emission intensity", "setting": "wavelength 337", "value": 1062210}, {"measurement": "Tryptophan fluorescence emission intensity", "setting": "wavelength 338", "value": 1071660}, {"measurement": "Tryptophan fluorescence emission intensity", "setting": "wavelength 339", "value": 1076280}, {"measurement": "Tryptophan fluorescence emission intensity", "setting": "wavelength 340", "value": 1083710}, {"measurement": "Tryptophan fluorescence emission intensity", "setting": "wavelength 341", "value": 1085920}, {"measurement": "Tryptophan fluorescence emission intensity", "setting": "wavelength 342", "value": 1080500}, {"measurement": "Tryptophan fluorescence emission intensity", "setting": "wavelength 343", "value": 1081010}, {"measurement": "Tryptophan fluorescence emission intensity", "setting": "wavelength 344", "value": 1074670}, {"measurement": "Tryptophan fluorescence emission intensity", "setting": "wavelength 345", "value": 1071140}, {"measurement": "Tryptophan fluorescence emission intensity", "setting": "wavelength 346", "value": 1066530}, {"measurement": "Tryptophan fluorescence emission intensity", "setting": "wavelength 347", "value": 1060720}, {"measurement": "Tryptophan fluorescence emission intensity", "setting": "wavelength 348", "value": 1058590}, {"measurement": "Tryptophan fluorescence emission intensity", "setting": "wavelength 349", "value": 1045760}, {"measurement": "Tryptophan fluorescence emission intensity", "setting": "wavelength 350", "value": 1042330}, {"measurement": "Tryptophan fluorescence emission intensity", "setting": "wavelength 351", "value": 1034700}, {"measurement": "Tryptophan fluorescence emission intensity", "setting": "wavelength 352", "value": 1019030}, {"measurement": "Tryptophan fluorescence emission intensity", "setting": "wavelength 353", "value": 1010620}, {"measurement": "Tryptophan fluorescence emission intensity", "setting": "wavelength 354", "value": 993340}, {"measurement": "Tryptophan fluorescence emission intensity", "setting": "wavelength 355", "value": 980850}, {"measurement": "Tryptophan fluorescence emission intensity", "setting": "wavelength 356", "value": 973320}, {"measurement": "Tryptophan fluorescence emission intensity", "setting": "wavelength 357", "value": 961650}, {"measurement": "Tryptophan fluorescence emission intensity", "setting": "wavelength 358", "value": 938960}, {"measurement": "Tryptophan fluorescence emission intensity", "setting": "wavelength 359", "value": 924340}, {"measurement": "Tryptophan fluorescence emission intensity", "setting": "wavelength 360", "value": 898600}, {"measurement": "Tryptophan fluorescence emission intensity", "setting": "wavelength 361", "value": 886010}, {"measurement": "Tryptophan fluorescence emission intensity", "setting": "wavelength 362", "value": 867380}, {"measurement": "Tryptophan fluorescence emission intensity", "setting": "wavelength 363", "value": 844340}, {"measurement": "Tryptophan fluorescence emission intensity", "setting": "wavelength 364", "value": 830030}, {"measurement": "Tryptophan fluorescence emission intensity", "setting": "wavelength 365", "value": 813040}, {"measurement": "Tryptophan fluorescence emission intensity", "setting": "wavelength 366", "value": 786750}, {"measurement": "Tryptophan fluorescence emission intensity", "setting": "wavelength 367", "value": 769070}, {"measurement": "Tryptophan fluorescence emission intensity", "setting": "wavelength 368", "value": 749540}, {"measurement": "Tryptophan fluorescence emission intensity", "setting": "wavelength 369", "value": 729430}, {"measurement": "Tryptophan fluorescence emission intensity", "setting": "wavelength 370", "value": 711180}, {"measurement": "Tryptophan fluorescence emission intensity", "setting": "wavelength 371", "value": 692310}, {"measurement": "Tryptophan fluorescence emission intensity", "setting": "wavelength 372", "value": 672500}, {"measurement": "Tryptophan fluorescence emission intensity", "setting": "wavelength 373", "value": 652280}, {"measurement": "Tryptophan fluorescence emission intensity", "setting": "wavelength 374", "value": 629710}, {"measurement": "Tryptophan fluorescence emission intensity", "setting": "wavelength 375", "value": 618580}, {"measurement": "Tryptophan fluorescence emission intensity", "setting": "wavelength 376", "value": 599350}, {"measurement": "Tryptophan fluorescence emission intensity", "setting": "wavelength 377", "value": 580660}, {"measurement": "Tryptophan fluorescence emission intensity", "setting": "wavelength 378", "value": 563670}, {"measurement": "Tryptophan fluorescence emission intensity", "setting": "wavelength 379", "value": 543190}, {"measurement": "Tryptophan fluorescence emission intensity", "setting": "wavelength 380", "value": 522740}, {"measurement": "Tryptophan fluorescence emission intensity", "setting": "wavelength 381", "value": 502820}, {"measurement": "Tryptophan fluorescence emission intensity", "setting": "wavelength 382", "value": 487000}, {"measurement": "Tryptophan fluorescence emission intensity", "setting": "wavelength 383", "value": 475140}, {"measurement": "Tryptophan fluorescence emission intensity", "setting": "wavelength 384", "value": 456600}, {"measurement": "Tryptophan fluorescence emission intensity", "setting": "wavelength 385", "value": 440790}, {"measurement": "Tryptophan fluorescence emission intensity", "setting": "wavelength 386", "value": 423940}, {"measurement": "Tryptophan fluorescence emission intensity", "setting": "wavelength 387", "value": 405220}, {"measurement": "Tryptophan fluorescence emission intensity", "setting": "wavelength 388", "value": 397190}, {"measurement": "Tryptophan fluorescence emission intensity", "setting": "wavelength 389", "value": 381080}, {"measurement": "Tryptophan fluorescence emission intensity", "setting": "wavelength 390", "value": 363380}, {"measurement": "Tryptophan fluorescence emission intensity", "setting": "wavelength 391", "value": 352540}, {"measurement": "Tryptophan fluorescence emission intensity", "setting": "wavelength 392", "value": 336000}, {"measurement": "Tryptophan fluorescence emission intensity", "setting": "wavelength 393", "value": 325360}, {"measurement": "Tryptophan fluorescence emission intensity", "setting": "wavelength 394", "value": 311620}, {"measurement": "Tryptophan fluorescence emission intensity", "setting": "wavelength 395", "value": 300840}, {"measurement": "Tryptophan fluorescence emission intensity", "setting": "wavelength 396", "value": 285190}, {"measurement": "Tryptophan fluorescence emission intensity", "setting": "wavelength 397", "value": 272180}, {"measurement": "Tryptophan fluorescence emission intensity", "setting": "wavelength 398", "value": 260830}, {"measurement": "Tryptophan fluorescence emission intensity", "setting": "wavelength 399", "value": 250140}, {"measurement": "Tryptophan fluorescence emission intensity", "setting": "wavelength 400", "value": 241040}, {"measurement": "Tryptophan fluorescence emission intensity", "setting": "wavelength 401", "value": 226290}, {"measurement": "Tryptophan fluorescence emission intensity", "setting": "wavelength 402", "value": 221660}, {"measurement": "Tryptophan fluorescence emission intensity", "setting": "wavelength 403", "value": 211970}, {"measurement": "Tryptophan fluorescence emission intensity", "setting": "wavelength 404", "value": 203540}, {"measurement": "Tryptophan fluorescence emission intensity", "setting": "wavelength 405", "value": 194410}, {"measurement": "Tryptophan fluorescence emission intensity", "setting": "wavelength 406", "value": 184680}, {"measurement": "Tryptophan fluorescence emission intensity", "setting": "wavelength 407", "value": 177100}, {"measurement": "Tryptophan fluorescence emission intensity", "setting": "wavelength 408", "value": 169410}, {"measurement": "Tryptophan fluorescence emission intensity", "setting": "wavelength 409", "value": 164650}, {"measurement": "Tryptophan fluorescence emission intensity", "setting": "wavelength 410", "value": 155310}, {"measurement": "Tryptophan fluorescence emission intensity", "setting": "wavelength 411", "value": 149680}, {"measurement": "Tryptophan fluorescence emission intensity", "setting": "wavelength 412", "value": 144200}, {"measurement": "Tryptophan fluorescence emission intensity", "setting": "wavelength 413", "value": 137560}, {"measurement": "Tryptophan fluorescence emission intensity", "setting": "wavelength 414", "value": 131490}, {"measurement": "Tryptophan fluorescence emission intensity", "setting": "wavelength 415", "value": 127250}, {"measurement": "Tryptophan fluorescence emission intensity", "setting": "wavelength 416", "value": 120610}, {"measurement": "Tryptophan fluorescence emission intensity", "setting": "wavelength 417", "value": 116040}, {"measurement": "Tryptophan fluorescence emission intensity", "setting": "wavelength 418", "value": 113630}, {"measurement": "Tryptophan fluorescence emission intensity", "setting": "wavelength 419", "value": 109000}, {"measurement": "Tryptophan fluorescence emission intensity", "setting": "wavelength 420", "value": 104760}]}]}
